Source: US9877937B2, “Compounds and methods for treating aberrant adrenocortical cell disorders” (Millendo Therapeutics, Inc., priority 2012, dated 2018)
“Also recorded” adds a separate entry of the source. Structures can show the parent of a compound that is named as a salt. Where two headings read alike, the source gives them in different places.

Tests used:
[1] = system: H295R cells; assay: Reducing activity of H295R cells (resazurin reduction, PrestoBlue); format: cell-based, human
Experimental: (§1) To measure ATP levels and reducing potentials of H295R cells, these cells were cultured in 96-well flat bottom cell culture plates (BD Biosciences) plated at 50,000 cells in 100 μl. The cells were plated in DMEM media without glucose (GIBCO 11966)+10 mM galactose+5 mM sodium-HEPES+2 mM glutamine (addition)+1 mM sodium pyruvate+100 U/ml penicillin/streptomycin+either 0% or 5% fetal calf serum. After overnight (16-20 h) incubation, 20 μl of medium containing 5% fetal calf serum as well as the aliquots of ATR-101 required to produce the final concentrations were added to the cells. To measure ATP levels, 100 μl of the CellTiter-Glo® (Promega Corp., Madison, Wis.) reagent was added to lyse the cells at the indicated times, and luciferin luminescence was measured to determine the amount of ATP in the lysate. To measure reducing activity, PrestoBlue® Cell Viability reagent (Life Technologies Corp.) was added to the cells immediately after ATR-101. The cells were incubated at 37° C. with CO2, and resorufin fluorescence was measured at the times indicated.
Cellular reducing activity was determined by measuring resazurin reduction using the PrestoBlue® Cell Viability Reagent (Invitrogen). […] Low to moderate concentrations of ATR-101 increased reducing activity, but had little effect on ATP levels. High concentrations of ATR-101 reduced both reducing activity and ATP levels, presumably because of a decrease in cell viability.
To determine if the culture of H295R cells in the presence of MβCD altered ATR-101 entry into cells, the effects of MβCD on ATR-101 induced changes in reducing activity were examined (FIG. 12D-F). Culture in the presence of MβCD alone had little effect on the reducing activity of the cells (FIG. 12E). […] The reduction in reducing activity was likely related to the reduction in ATP levels caused by MβCD complexed with cholesterol.

[2] = system: ACC-derived xenotransplants (H295R); assay: High dose ATR-101 on H295R xenotransplants in SCID mice (Example 7); format: in vivo; conditions: 1,000 mg/kg/day oral; 3 mice per group
From the text: The effects of a high dose of ATR-101 on ACC-derived xenotransplants in SCID mice were also studied. Xenografts were produced as previously described with 3 mice in the ATR-101 treated group and 3 mice in the control group.

[3] = system: ACC-derived cell line H295R xenografts; assay: ACC xenograft establishment in SCID mice injected with H295R cells (Example 6); format: in vivo
Experimental: FIG. 7 depicts the effects of ATR-101 administration on ACC xenograft establishment. Randomized cohorts of 10 mice injected with H295R cells were administered 700 mg/kg/day ATR-101 for 4 days followed by 300 mg/kg/day ATR-101 or vehicle by gavage beginning 14 days after cell injection. The sizes of the xenografts were measured three times each week.
(§2) To investigate the potential therapeutic benefit of ATR-101 in the establishment of ACC xenografts in a mouse model of ACC, ACC-derived cell line H295R was injected in SCID mice (6-7 week males). 1×10^8 cells in 0.2 ml DMEM were injected under the skin in the right dorsal flank regions of SCID mice. Two weeks after injection, the mice were randomized in groups of 10. ATR-101 was administered at 700 mg/kg/day for 4 days, followed by 300 mg/kg/day by oral gavage in 10% DMSO, 0.5% CMC, 0.9% NaCl, 0.2% Tween, pH 3. Control mice were administered vehicle. The tumor size was measured using calipers three times a week. Urinary cortisol was measured at various time points after start of ATR-101 or vehicle administration.

[4] = system: xenografts of the human ACC-derived cell line H295R; assay: H295R xenografts in SCID mice, treatment of established tumors (Examples 1 and 2); format: in vivo
Experimental: To investigate the potential therapeutic effect of ATR-101 in a mouse model of adrenocortical carcinoma (ACC), xenografts of the human ACC-derived cell line H295R in SCID mice (6-7 week males) were established. After the xenografts had grown to measurable size, the mice were randomized in two groups. The treatment group was administered 300 mg/kg/day ATR-101 by oral gavage. The control group was administered the vehicle without ATR-101. The tumor size was measured using calipers before and on the indicated days after starting administration of ATR-101.
To determine if the effects of ATR-101 on ACC-derived cell line xenotransplants were reproducible, the experiment using xenotransplants of the same H295R cell line in SCID mice (10-11 week males) were repeated.

[5] = system: adrenal gland; assay: Adrenal gland histopathology in dogs; format: in vivo; conditions: 300 mg/kg/day for 28 days; day 28; hydrochloride
Experimental: Left and right adrenal glands from dogs treated with a high dose 300 mg/kg/day of ATR-101 for 28 days and control animals were collected at necropsy and fixed in 10% neutral buffered formalin, processed by routine paraffin technique, sectioned longitudinally, and stained with hematoxylin and eosin for routine light microscopy (FIGS. 15A-E).

[6] = Tissue distribution of ATR-101 in rats; format: in vivo; conditions: for Kp at 7 days: rat, female rats, 100 mg/kg/day for 7 days, N=3
Experimental: (§3) Tissue distribution of ATR-101 in 3 rats and 3 dogs was examined. ATR-101 concentrations were measured in plasma, red blood cells, adrenal gland, liver, kidney, skeletal muscle, ovary, subcutaneous fat, and cerebral spinal fluid. […] ATR-101 concentrations in rats were higher in adrenal gland (˜2×) and ovary (˜1.4×) than in plasma. […] ATR-101 concentrations in dogs were similar in adrenal gland and plasma.

[7] = system: H295R cells; assay: ATP levels of H295R cells (CellTiter-Glo luminescence); format: cell-based, human
Experimental: as §1
To investigate the mechanism whereby ATR-101 kills cells in culture, the effects of cholesterol depletion on the ATP levels of H295R cells cultured in the presence of ATR-101 was investigated. The cells were cultured in the presence of methyl-β-cyclodextrin (MβCD), which can sequester cholesterol and thereby deplete free cholesterol in the cells. […] MβCD increased the concentration of ATR-101 required for half-maximal depletion of ATP levels more than 4-fold.
To determine if the effect of MβCD on ATR-101 cytotoxicity was due to cholesterol depletion, H295R cells were cultured in the presence of the equivalent amount of MβCD complexed with cholesterol (FIG. 12C). […] The protection of H295R cells from the cytotoxicity of ATR-101 by culture in the presence of MβCD was therefore due to cholesterol depletion in these cells.

[8] = system: cortisol produced by H295R cells xenografted into SCID mice; assay: Urinary cortisol levels in mice with H295R xenotransplants (DetectX cortisol assay kit); format: in vivo; conditions: 700 then 300 mg/kg/day; from 22 days after cell injection
Experimental: FIG. 8 depicts the urinary cortisol levels in mice with H295R xenotransplants treated with vehicle or ATR-101. Randomized cohorts of 10 mice injected with H295R cells were administered 700 mg/kg/day ATR-101 for 4 days followed by 300 mg/kg/day ATR-101 or vehicle by gavage beginning 14 days after cell injection. Urine was collected on the days indicated beginning at 22 days after cell injection (8 days after the start of ATR-101 or vehicle administration), and the cortisol levels were determined using a DetectX® cortisol assay kit (Arbor Assays).
as §2

[9] = Tissue distribution of ATR-101 in dogs; format: in vivo
Experimental: as §3

[10] = biological target: complex II of the electron transport chain (Homo sapiens, UniProt O14521+P21912+P31040+Q99643); conditions: isolated mitochondria; cited from earlier work
[11] = system: adrenal gland; assay: Adrenal gland weights in dogs after 28 days; format: in vivo
Experimental: Left and right adrenal glands from male and female dogs treated with various doses of ATR-101 (0 mg/kg/day, 0.3 mg/kg/day, 3 mg/kg/day, or 30 mg/kg/day) for 28 days were collected at necropsy and weighed. Dose-related changes in adrenal gland weights occurred in both sexes (FIGS. 16A and 17A). Absolute and relative (adrenal-to-body (Adrenal:BW (%)) and adrenal-to-brain (Adrenal:BrW) weight ratios) adrenal weights were decreased 14% to 55% in both sexes at ≧3 mg/kg/day (FIGS. 16A-C and 17A-C). After the 4 week recovery period, adrenal weights remained decreased 6% to 11% in males at 3 mg/kg/day and 10% to 32% in both sexes at 30 mg/kg/day. […] Histologic changes in the adrenal glands persisted after the recovery period.

[12] = system: ACTH-stimulated cortisol; assay: Basal and ACTH-stimulated plasma cortisol levels in dogs; format: in vivo
Experimental: […] 6 dogs/sex/dosage group were studied. […] Plasma cortisol concentrations (ng/ml) in male and female dogs were determined prior to ACTH stimulation and 0.5 and 1 hour after ACTH stimulation.

[13] = system: adrenocortical carcinoma (ACC); conditions: cited from earlier work

complex II of the electron transport chain, sequence (P31040 43-664): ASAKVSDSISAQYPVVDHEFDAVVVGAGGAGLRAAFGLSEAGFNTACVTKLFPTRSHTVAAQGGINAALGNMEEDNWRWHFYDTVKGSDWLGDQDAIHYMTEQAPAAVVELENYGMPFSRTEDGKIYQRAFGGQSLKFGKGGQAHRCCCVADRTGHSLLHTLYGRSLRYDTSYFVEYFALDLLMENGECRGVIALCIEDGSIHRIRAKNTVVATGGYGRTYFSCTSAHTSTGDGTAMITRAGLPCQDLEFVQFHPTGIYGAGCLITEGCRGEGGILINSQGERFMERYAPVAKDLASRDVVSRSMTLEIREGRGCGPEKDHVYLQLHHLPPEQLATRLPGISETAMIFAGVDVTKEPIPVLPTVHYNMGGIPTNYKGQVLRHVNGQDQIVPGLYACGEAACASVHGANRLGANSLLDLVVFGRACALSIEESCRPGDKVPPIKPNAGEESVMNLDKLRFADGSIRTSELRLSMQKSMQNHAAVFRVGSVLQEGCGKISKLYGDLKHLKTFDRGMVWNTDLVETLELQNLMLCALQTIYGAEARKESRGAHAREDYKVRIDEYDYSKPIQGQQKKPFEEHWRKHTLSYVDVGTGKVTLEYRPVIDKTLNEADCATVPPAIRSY
complex II of the electron transport chain, sequence (P21912 29-280): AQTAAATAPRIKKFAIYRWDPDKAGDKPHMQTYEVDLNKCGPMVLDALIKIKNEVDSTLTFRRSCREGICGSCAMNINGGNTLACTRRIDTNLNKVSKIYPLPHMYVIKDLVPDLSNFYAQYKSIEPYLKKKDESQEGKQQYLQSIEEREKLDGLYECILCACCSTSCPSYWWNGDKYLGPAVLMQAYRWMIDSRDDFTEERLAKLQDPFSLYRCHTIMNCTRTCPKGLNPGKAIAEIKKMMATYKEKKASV
complex II of the electron transport chain, sequence (Q99643 30-169): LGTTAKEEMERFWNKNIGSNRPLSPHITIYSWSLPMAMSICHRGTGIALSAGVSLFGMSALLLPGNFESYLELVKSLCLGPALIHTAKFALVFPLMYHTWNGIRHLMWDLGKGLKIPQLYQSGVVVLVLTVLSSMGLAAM
complex II of the electron transport chain, sequence (O14521 57-159): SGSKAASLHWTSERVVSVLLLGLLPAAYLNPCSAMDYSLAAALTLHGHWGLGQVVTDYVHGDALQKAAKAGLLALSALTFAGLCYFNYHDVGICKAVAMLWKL

CC(C)c1cccc(C(C)C)c1NC(=O)NCC1(c2ccc(N(C)C)cc2)CCCC1 [ATR-101, N-(2,6-bis(1-methylethyl)phenyl)-N′-((1-(4-(dimethylamino)phenyl)cyclopentyl)-methyl)urea hydrochloride]
reducing activity in cells cultured in presence of MβCD ([1]; 2 mM MβCD): larger increase in reducing activity
resazurin fluorescence signal, higher concentrations ([1]; ATR-101 concentrations higher than 8 μM): reduced the fluorescence
reducing activity in cells cultured with MβCD complexed with cholesterol ([1]; MβCD complexed with cholesterol, in absence and presence of ATR-101): lower reducing activities
resazurin fluorescence signal, low concentrations ([1]; up to 8 μM ATR-101): increased the fluorescence signal
tumor growth versus vehicle treated controls [2]: significantly reduced tumor growth
body weight versus vehicle ([3]; 700 then 300 mg/kg/day): no significant difference
median time until xenograft formation versus vehicle-treated group ([3]; 700 then 300 mg/kg/day): more than twice as long
survival ([3]; 100 days after injection): All the mice were alive
mice that developed palpable xenografts ([3]; of 10 mice, 700 mg/kg/day 4 days then 300 mg/kg/day by gavage from 14 days after injection, vehicle 7 of 10): 2
xenograft size ([3]; the 2 xenografts, 100 days after injection): < 500 mm^3
decrease in tumor size ([4]; 300 mg/kg/day oral gavage, 8 days after start, n=3, relative standard deviation 32%, control increased 400%): 50%
time to resumption of tumor growth after change to Formulation II ([4]; 300 mg/kg/day, formulation changed after first week): within two days
body condition score (BCS) ([4]; 300 mg/kg/day, treatment group, control 2.0): 3.0
tumor size versus control group ([4]; 15 days after beginning of administration, p<0.05): significantly smaller
time to resumption of tumor growth after start of administration ([4]; Example 2): within eight days
tumor size ([4]; Example 2, 300 mg/kg/day, six days after start, n=2): decreased to undetectable size
tumor size as fraction of size of tumors in control mice ([4]; Example 2, 13 days after start): one-eighth to one-third
regression of xenograft relative to size before administration ([4]; all mice with tumors smaller than 300 mm^3): less than half of its size
time at which tumors exceeded pre-treatment size ([4]; both experiments): 8 to 15 days
time at which tumors resumed growth after start of administration ([4]; both experiments): 7 to 9 days
time of maximal therapeutic effect after start of administration ([4]; both experiments): 6 to 8 days
post-mortem tumor weight (mean) ([4]; first experiment, surviving treated mice, SD of the mean 0.13 g, control 1.23 g, p<0.05): 0.71 g
total body weight (mean) ([4]; first experiment, treatment group, SD of the mean 1 g, control 19 g): 24 g
effect on tumor growth in mice with large tumors ([4]; two mice with tumors of 300 mm^3 and 900 mm^3): did not halt the tumor growth
adrenal gland histopathology findings [5]: fibrosis; also recorded: vacuolation; also recorded: cortical atrophy
Kp at 7 days ([6]; adrenal gland (relative to plasma), read-out: adrenal gland concentration relative to plasma): ~2
Kp at 7 days ([6]; ovary (relative to plasma), read-out: ovary concentration relative to plasma): ~1.4
blood-brain barrier crossing ([6]; rats): does not appear to cross the blood-brain barrier
level in cerebral spinal fluid (CSF) ([6]; rats, likely contamination of CSF with blood): Low levels
reduction of ATP luminescence signal ([7]; 64 μM, 4 hours): about 90%
increase by MβCD of ATR-101 concentration required for half-maximal depletion of ATP levels ([7]; 2 mM MβCD): more than 4 fold
ATP levels of cells cultured in presence of MβCD ([7]; 2 mM MβCD, up to 32 μM ATR-101): unaffected
EC50 ([7]; Homo sapiens, NCI-H295R, 4 hours, read-out: concentration with half-maximal effect on ATP luminescence signal): 16 µM
ATP level in cells cultured with MβCD complexed with cholesterol ([7]; MβCD (2 mM) complexed with cholesterol): further reduction
average urinary cortisol levels versus vehicle [8]: lower
blood-brain barrier crossing ([9]; dogs): does not appear to cross the blood-brain barrier
adrenal gland concentration compared with plasma ([9]; female dogs, 3 mg/kg/day for 7 days, N=3): similar
effect on complex II of the electron transport chain [10]: inhibit
histologic changes in adrenal glands after recovery period ([11]; after 4 week recovery): persisted
histologic changes associated with adrenal weight changes ([11]; both sexes, ≧3 mg/kg/day): adrenal cortical atrophy, fibrosis, and vacuolation
cortisol during recovery period ([12]; days 42 and 56, drug-free recovery): reversal of the cortisol-suppressive effects
ACTH responses (plasma cortisol) ([12]; male and female dogs, 3 mg/kg/day and 30 mg/kg/day, from day 7 through day 14 and day 28): Marked drug-associated decreases

Clc1ccc(C(c2ccccc2Cl)C(Cl)Cl)cc1 (centres unmarked) [mitotane]
proportion of patients with increased progression-free survival ([13]; ACC patients): one-quarter to one-third
elimination half-life ([13]; accumulates in fat tissue): months
average delay of disease progression ([13]; patients that derive a therapeutic benefit): five
blood level required for therapeutic benefit ([13]; patients): 14000 ng/mL
toxic blood level ([13]; patients): 20 mg/L
